Experimental data reported in ChEMBL document CHEMBL3885881, “DrugMatrix”.

Species on record: Rattus norvegicus
Assay: DrugMatrix - Regimen: Daily Repeat
Assay type: toxicity, organism-based, Sprague-Dawley
Parameters: regimen Daily Repeat, gender Male, age 6-8 weeks
Conditions: in vivo, po, route oral GAVAGE, […]; for ABSOLUTE BASOPHIL / ABSOLUTE EOSINOPHIL / ABSOLUTE LYMPHOCYTE / ABSOLUTE SEGMENTED NEUTROPHIL / BASOPHIL / EOSINOPHIL / ERYTHROCYTE COUNT / HEMOGLOBIN / LEUKOCYTE COUNT / LYMPHOCYTE / MEAN CORPUSCULAR HEMOGLOBIN / MEAN CORPUSCULAR HEMOGLOBIN CONCENTRATION / MEAN CORPUSCULAR VOLUME / MONOCYTE / NEUTROPHIL / NUCLEATED RED BLOOD CELLS / PLATELET COUNT: tissue Blood; for ALANINE AMINOTRANSFERASE / ALBUMIN / ALKALINE PHOSPHATASE / ASPARTATE AMINOTRANSFERASE / BLOOD UREA NITROGEN / CARBON DIOXIDE / CHLORIDE / CHOLESTEROL / CREATINE PHOSPHOKINASE / CREATININE / GLUCOSE / LACTATE DEHYDROGENASE / LIPASE / PHOSPHORUS / POTASSIUM / SODIUM / TOTAL BILIRUBIN / URIC ACID: tissue Plasma
[1] = 20 mg/kg, 72 h, dose level Low, time 3 day
[2] = 20 mg/kg, 120 h, dose level Low, time 5 day
[3] = 600 mg/kg, 72 h, dose level High, time 3 day
[4] = 600 mg/kg, 120 h, dose level High, time 5 day

CCCN(CCC)S(=O)(=O)c1ccc(C(=O)O)cc1 [PROBENECID]
ABSOLUTE BASOPHIL [1]: 0 CELLS/uL
ABSOLUTE EOSINOPHIL [1]: 143 CELLS/uL
ABSOLUTE LYMPHOCYTE [1]: 13997.67 CELLS/uL
ABSOLUTE SEGMENTED NEUTROPHIL [1]: 1155.67 CELLS/uL
BASOPHIL [1]: 0%
EOSINOPHIL [1]: 1%
ERYTHROCYTE COUNT [1]: 5.57 x10E6/uL
HEMOGLOBIN [1]: 13.7 G/DL
LEUKOCYTE COUNT [1]: 15.43 x10E3/uL
LYMPHOCYTE [1]: 90.33%
MEAN CORPUSCULAR HEMOGLOBIN [1]: 24.67 pg
MEAN CORPUSCULAR HEMOGLOBIN CONCENTRATION [1]: 39.3 G/DL
MEAN CORPUSCULAR VOLUME [1]: 62.8 fL
MONOCYTE [1]: 1%
NEUTROPHIL [1]: 7.67%
NUCLEATED RED BLOOD CELLS [1]: 0 /100WBC
PLATELET COUNT [1]: 1224.33 x10E3/uL
ALANINE AMINOTRANSFERASE [1]: 70 u/L
ALBUMIN [1]: 4 G/DL
ALKALINE PHOSPHATASE [1]: 531.67 u/L
ASPARTATE AMINOTRANSFERASE [1]: 87.67 u/L
BLOOD UREA NITROGEN [1]: 11 mg/dL
CARBON DIOXIDE [1]: 33.67 mmol/L
CHLORIDE [1]: 100.67 MEQ/L
CHOLESTEROL [1]: 81 mg/dL
CREATINE PHOSPHOKINASE [1]: 196.67 u/L
CREATININE [1]: 0.13 mg/dL
GLUCOSE [1]: 157.33 mg/dL
LACTATE DEHYDROGENASE [1]: 142.33 u/L
LIPASE [1]: 10.67 u/L
PHOSPHORUS [1]: 10.83 mg/dL
POTASSIUM [1]: 6.5 MEQ/L
SODIUM [1]: 141.87 MEQ/L
TOTAL BILIRUBIN [1]: 0.13 mg/dL
URIC ACID [1]: 1.4 mg/dL
ABSOLUTE BASOPHIL [2]: 0 CELLS/uL
ABSOLUTE EOSINOPHIL [2]: 118.67 CELLS/uL
ABSOLUTE LYMPHOCYTE [2]: 12848.33 CELLS/uL
ABSOLUTE SEGMENTED NEUTROPHIL [2]: 894.33 CELLS/uL
BASOPHIL [2]: 0%
EOSINOPHIL [2]: 0.67%
ERYTHROCYTE COUNT [2]: 5.43 x10E6/uL
HEMOGLOBIN [2]: 13.5 G/DL
LEUKOCYTE COUNT [2]: 14.13 x10E3/uL
LYMPHOCYTE [2]: 91%
MEAN CORPUSCULAR HEMOGLOBIN [2]: 25.03 pg
MEAN CORPUSCULAR HEMOGLOBIN CONCENTRATION [2]: 39.73 G/DL
MEAN CORPUSCULAR VOLUME [2]: 62.93 fL
MONOCYTE [2]: 2%
NEUTROPHIL [2]: 6.33%
NUCLEATED RED BLOOD CELLS [2]: 0 /100WBC
PLATELET COUNT [2]: 1072.33 x10E3/uL
ALANINE AMINOTRANSFERASE [2]: 70.67 u/L
ALBUMIN [2]: 3.97 G/DL
ALKALINE PHOSPHATASE [2]: 404.33 u/L
ASPARTATE AMINOTRANSFERASE [2]: 114.67 u/L
BLOOD UREA NITROGEN [2]: 13.67 mg/dL
CARBON DIOXIDE [2]: 29.67 mmol/L
CHLORIDE [2]: 102 MEQ/L
CHOLESTEROL [2]: 63.33 mg/dL
CREATINE PHOSPHOKINASE [2]: 910.33 u/L
CREATININE [2]: 0.19 mg/dL
GLUCOSE [2]: 178 mg/dL
LACTATE DEHYDROGENASE [2]: 364 u/L
LIPASE [2]: 10.33 u/L
PHOSPHORUS [2]: 11.13 mg/dL
POTASSIUM [2]: 6.49 MEQ/L
SODIUM [2]: 141.5 MEQ/L
TOTAL BILIRUBIN [2]: 0.23 mg/dL
URIC ACID [2]: 1.67 mg/dL
ABSOLUTE BASOPHIL [3]: 0 CELLS/uL
ABSOLUTE EOSINOPHIL [3]: 106 CELLS/uL
ABSOLUTE LYMPHOCYTE [3]: 14409.67 CELLS/uL
ABSOLUTE SEGMENTED NEUTROPHIL [3]: 2126 CELLS/uL
BASOPHIL [3]: 0%
EOSINOPHIL [3]: 0.67%
ERYTHROCYTE COUNT [3]: 5.2 x10E6/uL
HEMOGLOBIN [3]: 13.4 G/DL
LEUKOCYTE COUNT [3]: 16.7 x10E3/uL
LYMPHOCYTE [3]: 86.33%
MEAN CORPUSCULAR HEMOGLOBIN [3]: 25.73 pg
MEAN CORPUSCULAR HEMOGLOBIN CONCENTRATION [3]: 40.6 G/DL
MEAN CORPUSCULAR VOLUME [3]: 63.43 fL
MONOCYTE [3]: 0.33%
NEUTROPHIL [3]: 12.67%
NUCLEATED RED BLOOD CELLS [3]: 0.33 /100WBC
PLATELET COUNT [3]: 1182.33 x10E3/uL
ALANINE AMINOTRANSFERASE [3]: 83.67 u/L
ALBUMIN [3]: 3.93 G/DL
ALKALINE PHOSPHATASE [3]: 534.33 u/L
ASPARTATE AMINOTRANSFERASE [3]: 87 u/L
BLOOD UREA NITROGEN [3]: 11 mg/dL
CARBON DIOXIDE [3]: 27.67 mmol/L
CHLORIDE [3]: 99.67 MEQ/L
CHOLESTEROL [3]: 58 mg/dL
CREATINE PHOSPHOKINASE [3]: 599.67 u/L
CREATININE [3]: 0.18 mg/dL
GLUCOSE [3]: 155.67 mg/dL
LACTATE DEHYDROGENASE [3]: 259.33 u/L
LIPASE [3]: 10.33 u/L
PHOSPHORUS [3]: 10.97 mg/dL
POTASSIUM [3]: 6.4 MEQ/L
SODIUM [3]: 139.6 MEQ/L
TOTAL BILIRUBIN [3]: 0.27 mg/dL
URIC ACID [3]: 1.33 mg/dL
ABSOLUTE BASOPHIL [4]: 0 CELLS/uL
ABSOLUTE EOSINOPHIL [4]: 58.67 CELLS/uL
ABSOLUTE LYMPHOCYTE [4]: 15278 CELLS/uL
ABSOLUTE SEGMENTED NEUTROPHIL [4]: 1476.33 CELLS/uL
BASOPHIL [4]: 0%
EOSINOPHIL [4]: 0.33%
ERYTHROCYTE COUNT [4]: 6 x10E6/uL
HEMOGLOBIN [4]: 14.33 G/DL
LEUKOCYTE COUNT [4]: 16.87 x10E3/uL
LYMPHOCYTE [4]: 90.67%
MEAN CORPUSCULAR HEMOGLOBIN [4]: 23.93 pg
MEAN CORPUSCULAR HEMOGLOBIN CONCENTRATION [4]: 39.6 G/DL
MEAN CORPUSCULAR VOLUME [4]: 60.4 fL
MONOCYTE [4]: 0.33%
NEUTROPHIL [4]: 8.67%
NUCLEATED RED BLOOD CELLS [4]: 0 /100WBC
PLATELET COUNT [4]: 1128.33 x10E3/uL
ALANINE AMINOTRANSFERASE [4]: 55.67 u/L
ALBUMIN [4]: 4.37 G/DL
ALKALINE PHOSPHATASE [4]: 404.67 u/L
ASPARTATE AMINOTRANSFERASE [4]: 96.33 u/L
BLOOD UREA NITROGEN [4]: 20.33 mg/dL
CARBON DIOXIDE [4]: 31 mmol/L
CHLORIDE [4]: 101.67 MEQ/L
CHOLESTEROL [4]: 55.33 mg/dL
CREATINE PHOSPHOKINASE [4]: 902 u/L
CREATININE [4]: 0.25 mg/dL
GLUCOSE [4]: 169 mg/dL
LACTATE DEHYDROGENASE [4]: 213.67 u/L
LIPASE [4]: 10 u/L
PHOSPHORUS [4]: 10.3 mg/dL
POTASSIUM [4]: 5.85 MEQ/L
SODIUM [4]: 142.7 MEQ/L
TOTAL BILIRUBIN [4]: 0.27 mg/dL
URIC ACID [4]: 1.8 mg/dL
